According to publication PMC8618356, “Optimization, Characterization and Pharmacokinetic Study of Meso-Tetraphenylporphyrin Metal Complex-Loaded PLGA Nanoparticles” (International Journal of Molecular Sciences, 2021):
Read-outs that look alike come from different tables or passages of the source.

Legend:
[1] = tested on: HeLa, MCF-7, and SK-OV-3 cells; assay: Cytotoxicity, MTT assay; type: cell-based, human; conditions: all examined cell lines, 72 h
Protocol: The cancer cell lines HeLa (human cervical carcinoma), MCF-7 (human breast adenocarcinoma), and SK-OV-3 (human ovarian carcinoma) were purchased from the American Type Culture Collection (ATCC, Manassas, VA, USA). Cells were maintained in DMEM medium supplemented with 10% fetal bovine serum and gentamycin (50 μg/mL). Cells were maintained in plastic 25 cm^2 cell culture flasks at 37 °C in a humidified atmosphere containing 5% CO2. HeLa, MCF-7, and SK-OV-3 cells were plated before reaching 80% confluence using trypsin/EDTA solution.
MCF-7, SK-OV-3, and HeLa cells were plated in 96-well plates (5000 cells per well) one day before the experiment and incubated under standard conditions. MeP and MeP-NPs were added in triplets in the concentration range 0.125–100 μM (according to the MeP concentration) and incubated for 2 h. To determine cytotoxicity, cells were treated with AA alone or in combination with MeP in a molar ratio of 1:20 to MeP and then incubated for 72 h. Cell survival was determined using the standard MTT assay. Cell viability was determined as the percent of untreated control. Mean survival values were calculated in Excel (Microsoft Corporation, Redmond, Washington, DC, USA)) and data visualization was performed in OriginPro (version 2020b, OriginLab Corp., Northampton, MA, USA).

[2] = MeP loading content and encapsulation efficiency of PLGA NPs (spectrophotometry); type: physicochemical; conditions: optimized MeP-loaded PLGA NPs; for MeP loading content (LC): observed data
Protocol: EE and LC calculation is a critical stage in NP analysis, evaluating the MeP amount in NPs’ core. The EE of MeP was determined by dissolving 4 mg of NPs in 4 mL of distilled water followed by centrifugation at 5000× g for 3 min and subsequent lyophilization. The optical density of the sediment and supernatant was assessed at 465 nm for MnClTPP, 433 nm for NiTPP, and 428 nm for CoTPP. The entrapment efficiency of MeP (EE) was calculated according to Equation (9):(9) EE (%)=The mass of MeP in the nanoparticles, mg/The mass of the nanoparticles weight, mg ∗100%
MeP LC corresponded to the optical density of 4 mg of lyophilized NPs in 4 mL of DMSO. Subsequent absorption analysis was performed as indicated earlier and LC calculated according to the following Equation (10): (10) LC (%) = Absorbance∗VDMSO/ε∗msample∗100% where VDMSO is the total volume of suspension containing NPs (L), ε is the extinction coefficient of MeP in DMSO (ε = 116,280 M^−1 cm^−1 for MnClTPP, ε = 36,797 M^−1 cm^−1 for NiTPP, ε = 87,448 M^−1 cm^−1 for CoTPP), and msample is the NPs mass (g).

[3] = In vitro release study of MeP-loaded NPs in PBS pH 7.4 with 0.1% Tween 80; type: physicochemical; conditions: for release rate constant kк (Korsmeyer–Peppas model) / release exponent n (Korsmeyer–Peppas model): MeP release from MeP-loaded PLGA NPs; for release rate constant kк (Korsmeyer–Peppas model): PBS pH 7.4, 0.1% Tween 80, 37 °C; for release exponent n (Korsmeyer–Peppas model): less than 0.43 = Fickian diffusion; for duration of the fast (rapid) release phase: biphasic release from MeP-loaded NPs
From the text: We analyzed the release according to the method of Abouelmag et al. using a phosphate-buffered saline (PBS) pH 7.4 containing 0.1% Tween 80 (Figure 8) as a release medium.
We determined the MeP release mechanisms by fitting the data obtained by applying several release kinetic models (Table 7). […] The release exponent values were n = 0.01 for NiTPP, n = 0.06 for CoTPP, and n = 0.11 for MnClTPP, and less than 0.43, indicating Fickian diffusion of MeP [92].
The time-dependent release of MeP was analyzed by dissolving 3 mg of NPs in 1 mL of PBS (0.01 M, pH 7.4) and incubation in a dark glass bottle containing 40 mL of PBS (0.01 M, pH 7.4) and 0.1% (w/v) Tween 80 solution. The probes were kept on a shaker incubator at 90 rpm and 37 °C. Aliquots of 1 mL of media were taken at 0, 0.25, 0.5, 0.75, 1, 1.5, 2, 3, 4, 24, 48, 72, 120, 144, and 192 h and replenished with 1 mL of fresh PBS. The collected aliquots were centrifuged for 3 min at 5000× g at 37 °C. The supernatants were removed and lyophilized as well as the sediments. The amount of MeP released at each time point was calculated as described above according to optical absorption.

[4] = rat, in vivo, iv
Protocol: The MeP and MeP-NPs were administered via the lateral tail vein at tahe dose of 12.5 (NiTPP, CoTPP, and corresponding NPs at the equivalent dose) and 6.3 mg/kg (MnClTPP and MnClTPP-NPs at the equivalent dose).
Female Wistar rats (body weight 220–240 g) were supplied by Stolbovaya animal facility (Branch of the Scientific Center of Biomedical Technologies of the Federal Medical Biological Agency (Moscow, Russia)). The animals were kept under controlled conditions (temperature of 22 ± 2 °C and relative humidity of 50 ± 10%) with free access to water and standard pellet feed.
The MeP and MeP-NPs pharmacokinetics study was accomplished using randomly divided rat groups (n = 3). Blood samples (50 μL) were collected before injection and after at different time points: 0.25, 0.50, 1.0, 3.0, 6.0, 24.0, and 48.0 h. The blood samples were diluted to 1.0 mL and analyzed with ICP-MS (Agilent 7500C, Agilent Technologies, Tokyo, Japan) [112]. The sample introduction system consisted of a robust Babington nebulizer with a Scott spray chamber (Agilent Technologies, Tokyo, Japan) cooled by a Peltier element (2 °C). The data were acquired and processed with the ICP-MS ChemStation (Agilent Technologies, version G1834B; Santa Clara, CA, USA) software package. The internal standard method was applied in order to take into account the effect of the matrix; Rh was used as internal standard. For dilution of the whole blood samples and standard solution, the mixture of 0.1% Triton X-100–1% HNO3 was used. The same solution was used as the mobile phase of the mass spectrometer.
The pharmacokinetic parameters of MeP were estimated using standard non-compartmental methods [113]. The volume of distribution (Vd), mean residence time (MRT), elimination half-life (t1/2), and area under the plasma concentration–time curve from 0 h to infinity (AUCinf) were determined after intravenous administration of MeP-loaded NPs to animals. All calculations were performed using the PKSolver add-in program for Microsoft Excel [114].

BALB/c female mice = assay: Acute toxicity analysis; type: in vivo; conditions: i.v. tail vein, 24 h
Protocol: All experimental procedures with animals (mice and rats) were performed according to the University Ethics Committee for the use of experimental animals and animal studies were carried out as per the guidelines of the European Medicines Agency, Amsterdam, the Netherlands.
MeP and MeP-NP acute toxicity analysis was accomplished using randomly divided mice groups (n = 3). The samples were diluted in PBS and injected (200 μL) via the lateral tail vein. Due to poor water solubility, MePs were preliminarily dissolved in DMSO and Tween 80: the final solution represented 5% v/v DMSO and 2% Tween 80 v/v in PBS. Survival was registered for 24 h after injection.

[5] = In vitro release study of MeP-loaded NPs in PBS pH 7.4 with 0.1% Tween 80; type: physicochemical; conditions: after 180 h

In the case of `O=C1O[C@H]([C@@H](O)CO)C(O)=C1O` [AA, ascorbic acid], the “cytotoxicity alone, without combination (in words)” value [1] is reported as “lacked cell growth inhibition”.

In the case of `C1=Cc2nc1c(-c1ccccc1)c1ccc([n-]1)c(-c1ccccc1)c1nc(c(-c3ccccc3)c3ccc([n-]3)c2-c2ccccc2)C=C1.[Co+2]` [CoTPP], the “encapsulation efficiency (EE)” value [2] is reported as 79.7%, the “MeP loading content (LC)” value [2] is reported as 8.7% and the “release rate constant kк (Korsmeyer–Peppas model)” value (“release rate constant kк” for short) [3] is reported as 74.3 h⁻¹. The “release exponent n (Korsmeyer–Peppas model)” value (shortened to “release exponent n”) [3] was 0.06, the “duration of the fast (rapid) release phase” value (from here on “duration of the fast”) [3] was 30 min and the AUCinf ([4]; 12.5 mg/kg) was 60,370 ± 18,111 (µg/mL) (h). For the same compound, the MRT ([4]; 12.5 mg/kg) was 27 ± 7 h, the Vd ([4]; 12.5 mg/kg) was 0.003 ± 0.001 L/kg and the t1/2 ([4]; 12.5 mg/kg) was 17 ± 4 h. The “Mice Survived” value (BALB/c female mice; 6.25 mg/kg) was 3/3, the “Mice Survived” value (BALB/c female mice; 12.5 mg/kg) was 3/3 and the “Mice Survived” value (BALB/c female mice; 25 mg/kg) was 2/3. For the same compound, the “Mice Survived” value (BALB/c female mice; 50 mg/kg) was 0/3.

For `C1=Cc2nc1c(-c1ccccc1)c1ccc([n-]1)c(-c1ccccc1)c1nc(c(-c3ccccc3)c3ccc([n-]3)c2-c2ccccc2)C=C1.[Cl-].[Mn+3]` [MnClTPP, MnCl3-tetraphenylporphyrin chloride], the “encapsulation efficiency (EE)” value [2] was 79.9%, the “MeP loading content (LC)” value [2] was 28.9% and the “MeP released from NPs” value [5] was 80%. For the same compound, the “release rate constant kк” value [3] was 49.4 h⁻¹, the “release exponent n” value [3] was 0.11 and the “duration of the fast” value [3] was 15 min. The AUCinf ([4]; 6.3 mg/kg) was 15,362 ± 5377 (µg/mL) (h), the MRT ([4]; 6.3 mg/kg) was 62 ± 21 h and the Vd ([4]; 6.3 mg/kg) was 0.013 ± 0.004 L/kg. The t1/2 ([4]; 6.3 mg/kg) was 44 ± 14 h, the “Mice Survived” value (BALB/c female mice; 6.25 mg/kg) was 3/3 and the “Mice Survived” value (BALB/c female mice; 12.5 mg/kg) was 3/3. For the same compound, the “Mice Survived” value (BALB/c female mice; 25 mg/kg) was 3/3 and the “Mice Survived” value (BALB/c female mice; 50 mg/kg) was 2/3.

For `C1=Cc2nc1c(-c1ccccc1)c1ccc([n-]1)c(-c1ccccc1)c1nc(c(-c3ccccc3)c3ccc([n-]3)c2-c2ccccc2)C=C1.[Ni+2]` [NiTPP], the “MeP loading content (LC)” value [2] was 11.1%, the “release rate constant kк” value [3] was 91.3 h⁻¹ and the “release exponent n” value [3] was 0.01. For the same compound, the “duration of the fast” value [3] was 30 min, the AUCinf ([4]; 12.5 mg/kg) was 612 ± 184 (µg/mL) (h) and the MRT ([4]; 12.5 mg/kg) was 25 ± 6 h. The Vd ([4]; 12.5 mg/kg) was 2.683 ± 0.805 L/kg, the t1/2 ([4]; 12.5 mg/kg) was 19 ± 6 h and the “Mice Survived” value (BALB/c female mice; 6.25 mg/kg) was 3/3. For the same compound, the “Mice Survived” value (BALB/c female mice; 12.5 mg/kg) was 3/3, the “Mice Survived” value (BALB/c female mice; 25 mg/kg) was 1/3 and the “Mice Survived” value (BALB/c female mice; 50 mg/kg) was 0/3.
